Experiments:
[1] = target: Receptor-type tyrosine-protein phosphatase beta (Homo sapiens, UniProt P23467); assay: Inhibition of recombinant human PTPbeta using DiFMUP as substrate preincubated for 10 mins followed by substrate addition and measured after 2 hrs
[2] = target: T1, Tyrosine-protein phosphatase non-receptor type 2 (Homo sapiens, UniProt P17706); assay: Inhibition of recombinant TC-PTP (unknown origin)
T1 sequence (P17706 whole entry): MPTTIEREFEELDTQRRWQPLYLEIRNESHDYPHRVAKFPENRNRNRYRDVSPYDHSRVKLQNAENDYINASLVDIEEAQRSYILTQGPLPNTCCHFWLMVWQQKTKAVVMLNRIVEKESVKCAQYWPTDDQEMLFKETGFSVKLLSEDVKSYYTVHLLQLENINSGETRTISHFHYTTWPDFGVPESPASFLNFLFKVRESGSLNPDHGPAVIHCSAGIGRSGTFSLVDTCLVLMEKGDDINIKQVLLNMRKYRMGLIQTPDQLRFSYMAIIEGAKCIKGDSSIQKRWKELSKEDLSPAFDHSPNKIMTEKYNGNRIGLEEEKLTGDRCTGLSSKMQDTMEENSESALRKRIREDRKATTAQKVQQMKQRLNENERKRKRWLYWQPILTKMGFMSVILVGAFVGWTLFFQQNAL

[3] = target: T2, Tyrosine-protein phosphatase non-receptor type 11 (Homo sapiens, UniProt Q06124); assay: Inhibition of recombinant SHP2 (unknown origin)
T2 sequence (Q06124 whole entry): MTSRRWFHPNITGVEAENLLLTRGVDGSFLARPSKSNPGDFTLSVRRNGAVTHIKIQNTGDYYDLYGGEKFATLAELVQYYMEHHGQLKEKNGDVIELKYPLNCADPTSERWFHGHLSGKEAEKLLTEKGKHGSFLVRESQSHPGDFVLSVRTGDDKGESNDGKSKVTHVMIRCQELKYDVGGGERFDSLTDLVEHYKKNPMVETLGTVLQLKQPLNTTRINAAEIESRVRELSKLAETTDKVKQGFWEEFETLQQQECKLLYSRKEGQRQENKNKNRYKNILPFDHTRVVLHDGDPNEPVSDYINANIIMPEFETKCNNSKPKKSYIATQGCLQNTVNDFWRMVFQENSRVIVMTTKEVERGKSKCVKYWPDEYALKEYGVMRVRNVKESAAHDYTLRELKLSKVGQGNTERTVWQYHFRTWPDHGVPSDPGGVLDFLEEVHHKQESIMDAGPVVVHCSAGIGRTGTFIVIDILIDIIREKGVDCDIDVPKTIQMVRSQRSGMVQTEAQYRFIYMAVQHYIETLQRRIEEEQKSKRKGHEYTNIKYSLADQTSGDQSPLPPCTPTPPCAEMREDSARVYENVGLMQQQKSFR

[4] = target: T3, Tyrosine-protein phosphatase non-receptor type 1 (Homo sapiens, UniProt P18031); assay: Inhibition of recombinant PTP1B (unknown origin)
T3 sequence (P18031 whole entry): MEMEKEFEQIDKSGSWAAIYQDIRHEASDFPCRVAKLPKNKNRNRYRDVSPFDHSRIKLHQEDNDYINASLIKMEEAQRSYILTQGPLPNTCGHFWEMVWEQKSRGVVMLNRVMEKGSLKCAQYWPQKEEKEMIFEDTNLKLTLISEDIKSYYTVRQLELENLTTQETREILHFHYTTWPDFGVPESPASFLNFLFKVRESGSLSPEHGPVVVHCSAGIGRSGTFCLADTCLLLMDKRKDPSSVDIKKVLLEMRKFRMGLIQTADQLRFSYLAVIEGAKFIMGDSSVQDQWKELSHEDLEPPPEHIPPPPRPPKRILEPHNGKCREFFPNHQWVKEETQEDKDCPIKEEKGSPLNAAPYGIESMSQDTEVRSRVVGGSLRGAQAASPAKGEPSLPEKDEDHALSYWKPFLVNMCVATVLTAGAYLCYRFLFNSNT

[5] = target: Receptor-type tyrosine-protein phosphatase F (Homo sapiens, UniProt P10586); assay: Inhibition of recombinant LAR (unknown origin)
Chain of Receptor-type tyrosine-protein phosphatase F (P10586 whole entry): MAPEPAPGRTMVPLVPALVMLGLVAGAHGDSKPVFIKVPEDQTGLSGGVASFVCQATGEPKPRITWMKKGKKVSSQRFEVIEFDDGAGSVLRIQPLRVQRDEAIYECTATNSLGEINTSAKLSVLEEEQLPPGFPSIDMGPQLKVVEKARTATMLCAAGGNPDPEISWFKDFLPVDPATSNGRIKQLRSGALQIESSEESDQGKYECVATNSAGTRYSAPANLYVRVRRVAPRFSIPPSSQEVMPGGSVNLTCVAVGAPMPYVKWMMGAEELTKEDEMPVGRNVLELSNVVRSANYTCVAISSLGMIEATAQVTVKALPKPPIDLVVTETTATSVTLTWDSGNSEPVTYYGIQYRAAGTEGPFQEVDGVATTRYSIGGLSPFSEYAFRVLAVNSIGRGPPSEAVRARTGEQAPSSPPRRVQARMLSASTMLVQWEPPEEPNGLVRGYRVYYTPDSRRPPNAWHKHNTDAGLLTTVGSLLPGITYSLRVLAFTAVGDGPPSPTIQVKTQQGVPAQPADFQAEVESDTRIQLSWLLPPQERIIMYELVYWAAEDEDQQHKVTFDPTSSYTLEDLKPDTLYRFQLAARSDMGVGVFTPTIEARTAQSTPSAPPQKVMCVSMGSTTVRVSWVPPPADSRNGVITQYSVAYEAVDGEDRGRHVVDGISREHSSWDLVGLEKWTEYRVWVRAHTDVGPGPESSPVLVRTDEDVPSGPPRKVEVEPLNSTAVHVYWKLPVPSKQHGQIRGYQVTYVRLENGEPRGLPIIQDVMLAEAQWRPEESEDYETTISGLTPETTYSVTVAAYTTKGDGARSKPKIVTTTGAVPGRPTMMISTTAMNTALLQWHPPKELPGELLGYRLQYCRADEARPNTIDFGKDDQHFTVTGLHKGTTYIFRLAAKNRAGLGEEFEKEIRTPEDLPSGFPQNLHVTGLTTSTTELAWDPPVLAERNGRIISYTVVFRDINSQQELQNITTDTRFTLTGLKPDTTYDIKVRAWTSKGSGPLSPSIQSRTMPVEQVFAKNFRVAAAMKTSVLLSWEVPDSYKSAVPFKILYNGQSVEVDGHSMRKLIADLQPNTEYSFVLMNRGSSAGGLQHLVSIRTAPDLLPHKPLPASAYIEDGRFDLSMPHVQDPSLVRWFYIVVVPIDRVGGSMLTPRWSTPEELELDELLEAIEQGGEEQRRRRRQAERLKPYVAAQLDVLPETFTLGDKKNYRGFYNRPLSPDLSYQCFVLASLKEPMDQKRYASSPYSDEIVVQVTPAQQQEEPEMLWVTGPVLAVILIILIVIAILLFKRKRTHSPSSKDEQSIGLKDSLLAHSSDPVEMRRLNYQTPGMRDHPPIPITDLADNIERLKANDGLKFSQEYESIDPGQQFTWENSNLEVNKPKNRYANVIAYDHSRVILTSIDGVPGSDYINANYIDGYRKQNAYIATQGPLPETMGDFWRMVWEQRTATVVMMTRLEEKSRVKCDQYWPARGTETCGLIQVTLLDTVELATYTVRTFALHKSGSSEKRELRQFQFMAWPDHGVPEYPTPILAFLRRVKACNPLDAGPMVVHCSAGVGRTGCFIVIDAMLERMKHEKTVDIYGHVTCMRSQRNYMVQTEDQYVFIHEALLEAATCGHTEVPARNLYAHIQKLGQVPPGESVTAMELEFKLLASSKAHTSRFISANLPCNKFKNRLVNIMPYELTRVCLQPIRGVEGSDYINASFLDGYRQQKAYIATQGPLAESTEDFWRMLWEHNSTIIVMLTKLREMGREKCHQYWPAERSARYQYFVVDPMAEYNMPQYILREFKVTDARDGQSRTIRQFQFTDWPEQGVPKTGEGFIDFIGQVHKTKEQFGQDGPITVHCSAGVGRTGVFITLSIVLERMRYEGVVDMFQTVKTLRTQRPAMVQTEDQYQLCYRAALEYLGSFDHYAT

Chain of Receptor-type tyrosine-protein phosphatase beta (P23467 whole entry): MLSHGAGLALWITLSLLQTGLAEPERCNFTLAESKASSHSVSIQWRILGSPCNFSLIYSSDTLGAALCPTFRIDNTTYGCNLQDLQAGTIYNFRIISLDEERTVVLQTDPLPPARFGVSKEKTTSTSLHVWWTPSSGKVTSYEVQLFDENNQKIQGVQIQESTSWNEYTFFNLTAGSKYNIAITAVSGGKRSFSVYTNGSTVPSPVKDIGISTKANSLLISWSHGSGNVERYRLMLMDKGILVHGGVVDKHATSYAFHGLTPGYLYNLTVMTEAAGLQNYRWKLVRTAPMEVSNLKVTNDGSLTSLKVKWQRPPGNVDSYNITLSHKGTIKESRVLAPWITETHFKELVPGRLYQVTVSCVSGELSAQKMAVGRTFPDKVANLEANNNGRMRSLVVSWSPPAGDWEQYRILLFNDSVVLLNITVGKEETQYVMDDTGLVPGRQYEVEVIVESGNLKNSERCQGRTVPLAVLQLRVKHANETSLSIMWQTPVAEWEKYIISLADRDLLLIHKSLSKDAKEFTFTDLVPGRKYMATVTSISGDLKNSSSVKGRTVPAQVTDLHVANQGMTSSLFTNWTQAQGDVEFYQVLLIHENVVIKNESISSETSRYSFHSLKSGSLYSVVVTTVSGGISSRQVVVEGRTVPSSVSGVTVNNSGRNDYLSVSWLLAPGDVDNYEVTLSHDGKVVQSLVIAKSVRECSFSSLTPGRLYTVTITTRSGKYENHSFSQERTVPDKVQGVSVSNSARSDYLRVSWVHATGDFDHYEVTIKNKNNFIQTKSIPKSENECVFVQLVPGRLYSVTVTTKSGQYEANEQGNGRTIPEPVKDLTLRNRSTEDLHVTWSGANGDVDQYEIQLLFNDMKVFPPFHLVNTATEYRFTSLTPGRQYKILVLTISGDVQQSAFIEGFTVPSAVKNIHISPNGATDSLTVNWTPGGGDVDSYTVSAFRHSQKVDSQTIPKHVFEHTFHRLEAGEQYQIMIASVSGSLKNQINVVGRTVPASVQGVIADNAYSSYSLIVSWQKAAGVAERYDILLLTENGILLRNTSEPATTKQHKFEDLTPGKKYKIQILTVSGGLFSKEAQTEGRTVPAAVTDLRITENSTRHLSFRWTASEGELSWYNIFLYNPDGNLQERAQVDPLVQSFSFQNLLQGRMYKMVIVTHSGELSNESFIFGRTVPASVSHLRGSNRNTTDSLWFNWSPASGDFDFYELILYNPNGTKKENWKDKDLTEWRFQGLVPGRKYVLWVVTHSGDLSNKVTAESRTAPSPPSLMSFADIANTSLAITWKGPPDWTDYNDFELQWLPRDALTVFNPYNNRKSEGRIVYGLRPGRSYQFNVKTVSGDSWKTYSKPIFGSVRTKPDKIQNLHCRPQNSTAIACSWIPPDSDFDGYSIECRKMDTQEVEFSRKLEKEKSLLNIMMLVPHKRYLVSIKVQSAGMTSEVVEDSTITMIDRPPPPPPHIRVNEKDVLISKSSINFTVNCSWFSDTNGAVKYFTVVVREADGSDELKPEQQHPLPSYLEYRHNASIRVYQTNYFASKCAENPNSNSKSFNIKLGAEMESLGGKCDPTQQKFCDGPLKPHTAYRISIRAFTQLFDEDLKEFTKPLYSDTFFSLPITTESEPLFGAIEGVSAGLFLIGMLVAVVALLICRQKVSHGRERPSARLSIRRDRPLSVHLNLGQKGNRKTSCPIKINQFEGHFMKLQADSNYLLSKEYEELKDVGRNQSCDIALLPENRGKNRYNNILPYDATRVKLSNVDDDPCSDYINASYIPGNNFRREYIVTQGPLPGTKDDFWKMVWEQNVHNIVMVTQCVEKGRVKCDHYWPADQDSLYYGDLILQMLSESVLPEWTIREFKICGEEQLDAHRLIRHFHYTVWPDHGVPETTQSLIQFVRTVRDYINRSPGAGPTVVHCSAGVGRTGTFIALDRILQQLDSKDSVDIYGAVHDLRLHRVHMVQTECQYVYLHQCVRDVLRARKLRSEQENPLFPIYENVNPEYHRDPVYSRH

| SMILES | IC50 [1] | IC50 [2] | IC50 [3] | IC50 [4] | IC50 [5] |
| --- | --- | --- | --- | --- | --- |
| O=C(COc1ccc(Cl)cc1Cl)N(Cc1ccc(NS(=O)(=O)O)cc1)c1ccccc1 | 1.68 µM |  |  |  |  |
| O=C(Cc1cccc(F)c1)N(Cc1ccc(NS(=O)(=O)O)cc1)c1ccccc1 | 1.72 µM |  |  |  |  |
| COC(=O)N[C@@H](Cc1ccccc1)C(=O)N(Cc1ccc(NS(=O)(=O)O)cc1)c1ccccc1 | 3.42 µM |  |  |  |  |
| CC(C)(C)OC(=O)N1CCC(C(=O)N(Cc2ccc(NS(=O)(=O)O)cc2)c2ccccc2)CC1 | 1.45 µM | 102 µM | 24.7 µM | 123 µM | 112 µM |
| O=C(Cc1ccc(Br)c(F)c1)N(Cc1ccc(NS(=O)(=O)O)cc1)c1ccccc1 | 1.78 µM |  |  |  |  |
| CC(C)(C)OC(=O)N1CCC(C(=O)N(Cc2ccc(NS(=O)(=O)O)cc2)c2nc(-c3ccccc3)cs2)CC1 | 6.4 µM |  |  |  |  |
| COC(=O)N[C@@H](Cc1ccccc1)C(=O)N(Cc1ccc(NS(=O)(=O)O)cc1)c1nc(-c2ccccc2)cs1 | 3.46 µM |  |  |  |  |
| O=C(Cc1cccc(F)c1)N(Cc1ccc(NS(=O)(=O)O)cc1)c1nc(-c2ccccc2)cs1 | 4.1 µM |  |  |  |  |
| COC(=O)N[C@@H](Cc1ccccc1)C(=O)N(Cc1ccc(NS(=O)(=O)O)cc1)c1nc(-c2cccs2)cs1 | 6.61 µM |  |  |  |  |
| O=C(c1cccnc1Cl)N(Cc1ccc(NS(=O)(=O)O)cc1)c1nc(-c2ccccc2)cs1 | 2.98 µM | 32.8 µM | 19.6 µM | 22.2 µM | 42.3 µM |
| O=C(c1ccccc1Cl)N(Cc1ccc(NS(=O)(=O)O)cc1)c1nc(-c2ccccc2)cs1 | 4.67 µM |  |  |  |  |
| COc1cccc(S(=O)(=O)N(Cc2ccc(NS(=O)(=O)O)cc2)c2nc(-c3ccccc3)cs2)c1 | 0.968 µM | 31.3 µM | 6.41 µM | 20.5 µM | 34.8 µM |
| COc1ccc(S(=O)(=O)N(Cc2ccc(NS(=O)(=O)O)cc2)c2nc(-c3ccccc3)cs2)cc1 | 2.07 µM |  |  |  |  |
| O=S(=O)(O)Nc1ccc(CN(c2nc(-c3ccccc3)cs2)S(=O)(=O)c2cccc(F)c2)cc1 | 1.24 µM |  |  |  |  |
| O=S(=O)(O)Nc1ccc(CN(c2nc(-c3ccccc3)cs2)S(=O)(=O)c2cccc(Cl)c2)cc1 | 1.32 µM |  |  |  |  |
| O=C(c1ccccc1Cl)N(Cc1ccc(NS(=O)(=O)O)cc1)c1nc(-c2cccs2)cs1 | 5.94 µM |  |  |  |  |
| COc1cccc(S(=O)(=O)N(Cc2ccc(NS(=O)(=O)O)cc2)c2nc(-c3cccs3)cs2)c1 | 1.41 µM |  |  |  |  |
| COc1ccc(S(=O)(=O)N(Cc2ccc(NS(=O)(=O)O)cc2)c2nc(-c3cccs3)cs2)cc1 | 1.81 µM |  |  |  |  |
| O=S(=O)(O)Nc1ccc(CN(c2nc(-c3cccs3)cs2)S(=O)(=O)c2cccc(F)c2)cc1 | 1.07 µM |  |  |  |  |
| O=S(=O)(O)Nc1ccc(CN(c2nc(-c3cccs3)cs2)S(=O)(=O)c2cccc(Cl)c2)cc1 | 1.75 µM |  |  |  |  |
| O=S(=O)(O)Nc1ccc(CNc2nc(-c3cccs3)cs2)cc1 | 0.995 µM | > 250 µM | 25.6 µM | > 250 µM | 130 µM |
| O=[N+]([O-])c1ccc(CNc2ccccc2)cc1 |  | 20.1 µM | 55.3 µM | 15.7 µM | 76.4 µM |

From BindingDB's records for doi:10.1021/np200036v (National Engineering Research Center For The Emergency …, 2020)
